Data on four compounds can be found in patent US5840750A, “Discodermolide compounds” (priority 1996, dated 1998).

Assay [1] concerns GI-101A human breast cells. Kind of assay: Cell cycle analysis of GI-101A human breast cells. The assay is classed as cell-based. The settings on record: 24 hours. As to the method: (§1) Cell cycle studies were initiated in order to pinpoint a specific phase within the cell cycle in which discodermolide was exerting its antiproliferative effect. GI-101A human breast and A549 human lung cells were used as cell cycle targets to compare the effects of discodermolide and taxol on perturbation of the cell cycle. Cell cycle analyses were performed as follows: GI-101A and A549 cells were incubated at 37° C. in 10% CO2 in air in the presence or absence of varying concentrations of discodermolide or taxol (purchased from Molecular Probes, Eugene, Oreg.) for 48 hours. Cells were harvested, fixed in ethanol, and stained with 0.5 mg/ml of propidium iodide (P.I.) together with 0.1 mg/ml of RNase A. This procedure permeabilizes live cells and allows entry of P.I. to stain DNA. Stained preparations were analyzed on a Coulter EPICS ELITE with 488 nm excitation with the dead cells excluded by back-gating of P.I. preparations without detergent on forward and side scatter histograms. Fluorescence measurements and resulting DNA histograms were collected from at least 5,000 P.I. stained cells at an emission wavelength of 690 nm. Raw histogram data were further analyzed using a cell cycle analysis program (Multicycle, Phoenix Flow Systems).
Approximately 56% of the control cells comprise the G1 phase of the cell cycle, and 30% comprise the S phase. Only approximately 14% of cells are demonstrable in the G2 /M phase in asynchronous cultures at any one time mainly due to their high proliferative rate (FIG. 2A). At 24 hours post culture initiation with 100 ng/ml of discodermolide, the percentage of cells in G1 phase decreased to 22%. […] The percentage of cells in G1 decreased from 56% in the control to 27% in taxol-treated cultures.

Another assay deals with A549 human lung cells. The experiment in a line: Cell cycle analysis of A549 human lung cells. Type of assay: cell-based. As to conditions: 48 hours. As to the method: as §1
Discodermolide and taxol were compared for their effects on the proliferation of A549 human lung cells. Cell cultures were similarly initiated in the presence and absence of various concentrations of discodermolide or taxol and incubated at 37° C. in 10% CO2 in air for 48 hours. Cells were harvested and stained and analyzed on the flow cytometer as outlined above.

Assay [2] deals with Jurkat human leukemia cells. The experiment in a line: Cell cycle analysis of Jurkat human leukemia cells. The assay is classed as cell-based. The settings on record: 48 hours, discodermolide 100 ng/ml. As to the method:
Discodermolide and taxol were compared for their effects on the proliferation of Jurkat human leukemia cells. Cell cultures were similarly initiated in the presence and absence of various concentrations of discodermolide or taxol and incubated at 37° C. in 10% CO2 in air for 48 hours. Cells were harvested and stained and analyzed on a flow cytometer using standard procedures. […] The percentage of S-phase cells in both groups increased from 25% in the control to 38% in both discodermolide- and taxol-treated cells.

For assay [3], the system named is MCF-7 cells and MDA-MB-231 cells. Kind of assay: Growth of human breast carcinoma cells. The assay is classed as cell-based. The settings on record: Breast carcinoma cell, results similar for both lines (MCF-7, MDA-MB-231). As to the method:
(§2) The effect of discodermolide on two human breast carcinoma cell lines, estrogen receptor positive MCF-7 cells, and estrogen receptor negative MDA-MB-231 cells, was determined. The results were compared with those obtained by treatment with taxol. Both lines were examined for drug effects on growth and by indirect immunofluorescence for effects on the microtubule cytoskeleton. The results were similar for both lines. […] These patterns appeared at concentrations as low as 10 nm.

The subject of assay [4] is microtubule cytoskeleton in MCF-7 cells and MDA-MB-231 cells. Kind of assay: Indirect immunofluorescence for effects on the microtubule cytoskeleton of human breast carcinoma cells. As to conditions: Homo sapiens, Breast carcinoma cell; only at much higher drug concentrations; read-out: concentration at which immunofluorescence changes occurred. The assay is classed as cell-based. As to the method: as §2

Another assay relates to bovine brain tubulin. The experiment in a line: Tubulin polymerization monitored turbidimetrically. The assay is classed as biochemical. The settings on record: 10 μM drug. As to the method:
(§3) Discodermolide was analyzed for its interactions with tubulin. Tubulin polymerization was monitored turbidimetrically at 350 nm with an electronic temperature controller. Reaction mixtures contained 0.1M 4-morpholine-ethanesulfonate (pH 6.9), 1.0 mg/ml (10 μM) electrophoretically-homogenous bovine brain tubulin freed of unbound nucleotide by gel filtration, 0.5 mg/ml heat-treated MAPs, 100 μM GTP, and 4% (v/v) dimethylsulfoxide. A concentration of 10 μM of discodermolide (curve 3) was compared with the same concentration of taxol (curve 2) and no drug (curve 1), as shown in FIG. 5.

Assay [5] deals with tubulin. Kind of assay: EC50 for the polymerization of tubulin. The assay is classed as biochemical. The settings on record: additional studies. As to the method:
as §3

Assay [6] relates to tubulin. Kind of assay: Electron micrographs of polymers of tubulin. The assay is classed as biochemical. As to conditions: compared with control.
In another assay the test system is microtubules. The settings on record: literature; cited from earlier work.
The next assay relates to cancers. The settings on record: clinical trials; cited from earlier work.
In the next assay the test system is Swiss 3TC. The experiment in a line: Constitutive proliferation of murine non-lymphoid Swiss 3TC cells. Type of assay: cell-based. The settings on record: 3T3; up to 1 μg/ml.
The subject of another assay is BMSC 8.3. The experiment in a line: Constitutive proliferation of murine non-lymphoid BMSC 8.3 cells. Type of assay: cell-based. As to conditions: BMSC lines; up to 1 μg/ml. An excerpt: (§4) ^d Bone marrow stromal cells (MBSC) derived from CS7BL/6 mice.
The test system of another assay is BMSC 8.6. Kind of assay: Constitutive proliferation of murine non-lymphoid BMSC 8.6 cells. Type of assay: cell-based. As to conditions: BMSC lines; up to 1 μg/ml.
Excerpt: as §4

A further assay concerns BMSC 25.4. The experiment in a line: Constitutive proliferation of murine non-lymphoid BMSC 25.4 cells. The assay is classed as cell-based. As to conditions: BMSC lines; up to 1 μg/ml.
Excerpt: as §4

In a further assay the test system is Normal Fibroblast. The experiment in a line: Constitutive proliferation of human non-lymphoid normal (foreskin) fibroblasts. The settings on record: human fibroblasts; up to 3 μM.
Another assay relates to P388. The experiment in a line: P388 IC50 (biological activity of octahydrodiscodermolide compounds). The assay is classed as cell-based. As to the method: (§5) The octahydrodiscodermolide compounds were tested for biological activity and the following results obtained: […]
The test system of a further assay is A549. The experiment in a line: A549 IC50 (biological activity of octahydrodiscodermolide compounds). Type of assay: cell-based, human. As to the method:
as §5

A value given as a limit tells only on which side of the number the result lay.

Excerpt for Swiss 3TC: The effects of discodermolide on the inhibition of constitutive proliferation of a number of lymphoid and non-lymphoid cell lines of mouse or human origin was investigated.

As a reminder, the IC50 is the midpoint of a concentration-inhibition curve. Broadly, the EC50 is the concentration giving half of the maximal effect. As for `CC(=O)O[C@H]1C(=O)[C@@]2(C)[C@H]([C@H](OC(=O)c3ccccc3)[C@]3(O)C[C@H](OC(=O)[C@H](O)[C@@H](NC(=O)c4ccccc4)c4ccccc4)C(C)=C1C3(C)C)[C@]1(OC(C)=O)CO[C@@H]1C[C@@H]2O` [taxol, reference compound], the “effect on cell cycle progression” value in assay [1] (GI-101A) is given as “block at G2 /M”. The “percentage of cells in G2 /M” value in assay [1] (discodermolide 100 ng/ml, control 14%) is on record as 37%; with A549 human lung cells (discodermolide 100 ng/ml, control 4%), 77%; in assay [2] (control 7%) it was 28%. Besides, in [1] (discodermolide 100 ng/ml, control 30%), the “percentage of S phase cells” value turned out to be 37%. In addition, in assay [1] (discodermolide 100 ng/ml, control 56%), the “percentage of cells in G1 phase” value is recorded as 27%. The “percentage of S phase cells (in words)” value in the assay with A549 human lung cells (control 19%) is “did not change significantly”. Besides, the “percentage of cells in G1” value worked out at 11% with A549 human lung cells (discodermolide 100 ng/ml, control 77%) and 34% in [2] (control 68%). In addition, the “percentage of S-phase cells” value in [2] (control 25%) was 38%. This compound had a concentration for half-maximal inhibition (IC50) in assay [3] of 2.1 nM. Also, in [4], the minimal effective concentration amounted to 1 µM. The “temperature at which tubulin polymerization/assembly began” value in the assay on bovine brain tubulin (10 μM tubulin, MAPs, GTP, control 37° C.) is 10 °C. In addition, in the assay with bovine brain tubulin (control disassembled), the “stability of assembly upon return of the mixture to 0° C.” value is recorded as “modest decline”. Besides, the EC50 with tubulin [5] turned out to be 23 µM. Also, the “electron micrographs of polymers of tubulin” value in the assay with tubulin [6] was “very similar characteristics, presence of polymers, microtubules, and sheets; however, the taxol-inducedpolymers were somewhat longer than those induced with discodermolide”. In the assay on microtubules, the effect on microtubules result was “stabilizes microtubules and inhibits their depolymerization to free tubulin”. In addition, in the assay with cancers, the clinical effect entry is “effective in the treatment of a wide range of cancers”.
As for Cyclosporin A [reference compound], the “inhibition (Cyclosporin A)” value with Swiss 3TC, in the assay with BMSC 8.3, with BMSC 8.6, with BMSC 25.4 and with Normal Fibroblast was “no” in each case.
As to octahydrodiscodermolide [20SG721], the results for the IC50 in the assay on P388 and in the assay on A549 were 0.02 µg/mL and 0.008 µg/mL, respectively.
In the case of octahydrodiscodermolide [20SG724], the IC50 with P388 is 3.56 µg/mL; in the assay with A549, above 5 µg/mL.
